From patent publication US20240190862A1 (AMGEN INC., priority 2019, published 2024)
Read-outs that look alike come from different tables or passages of the source.

Tests used:
[1] = target: GDP-bound KRAS protein (aa 1-169) G12C/C118A (Homo sapiens (Human), UniProt P01116, C118A/G12C); test: Coupled Nucleotide Exchange Assay (KRAS G12C); assay type: biochemical
Protocol: (§1) Coupled Nucleotide Exchange Assay: Purified GDP-bound KRAS protein (aa 1-169), containing either G12C or G12D, as well as C118A amino acid substitutions and an N-terminal His-tag, was pre-incubated in assay buffer (25 mM HEPES pH 7.4, 10 mM MgCl2, and 0.01% Triton X-100) with a compound dose-response titration for either 5 min or 20 hours (see Table 15). Following compound pre-incubation, purified SOS protein (aa 564-1049) and GTP (Roche 10106399001) were added to the assay wells and incubated for an additional 30 min. To determine the extent of inhibition of SOS-mediated nucleotide exchange, purified GST-tagged cRAF (aa 1-149), nickel chelate AlphaLISA acceptor beads (PerkinElmer AL108R), and AlphaScreen glutathione donor beads (PerkinElmer 6765302) were added to the assay wells and incubated for 10 minutes. The assay plates were then read on a PerkinElmer EnVision Multilabel Reader, using AlphaScreen® technology, and data were analyzed using a 4-parameter logistic model to calculate IC50 values.

[2] = target: GDP-bound KRAS protein (aa 1-169) G12D/C118A (Homo sapiens (Human), UniProt P01116, C118A/G12D); test: Coupled Nucleotide Exchange Assay (KRAS G12D); assay type: biochemical
Protocol: as §1

[3] = 5 min compound pre-incubation, read-out: GDP KRAS G12C 5 min Coupled Exchange IC50 IP
[4] = 20 h compound pre-incubation, read-out: GDP KRAS G12C 20 h Coupled Exchange IC50 IP
[5] = 20 h compound pre-incubation, read-out: GDP KRAS G12D 20 h Coupled Exchange IC50 IP

Chain of GDP-bound KRAS protein (aa 1-169) G12C/C118A (P01116 other isoform, or with tags, fused parts or gaps G12C/C118A): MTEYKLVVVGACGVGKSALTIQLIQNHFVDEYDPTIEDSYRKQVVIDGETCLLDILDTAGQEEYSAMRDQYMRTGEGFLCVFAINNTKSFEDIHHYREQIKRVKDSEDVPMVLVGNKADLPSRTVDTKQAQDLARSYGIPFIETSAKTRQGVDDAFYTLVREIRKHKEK
Chain of GDP-bound KRAS protein (aa 1-169) G12D/C118A (P01116 other isoform, or with tags, fused parts or gaps G12D/C118A): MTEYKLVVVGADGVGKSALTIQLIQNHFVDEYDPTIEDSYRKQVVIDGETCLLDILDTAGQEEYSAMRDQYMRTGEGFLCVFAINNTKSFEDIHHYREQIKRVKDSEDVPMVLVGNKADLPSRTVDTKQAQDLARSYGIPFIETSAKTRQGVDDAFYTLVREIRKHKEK

| Compound | IC50 [1, 3] [µM] | IC50 [1, 4] [µM] | IC50 [2, 5] [µM] | IC50 ([1]; GDP KRAS G12C 5 min Coupled Exchange IC50 IP, 5 min compound pre-incubation) [µM] | IC50 ([1]; GDP KRAS G12C 20 h Coupled Exchange IC50 IP, 20 h compound pre-incubation) [µM] | IC50 [2] [µM] |
| --- | --- | --- | --- | --- | --- | --- |
| Cc1ccnc(C(C)C)c1-n1c(=O)nc(N2CCN(C(=O)[C@H]3O[C@@H]3C)C[C@@H]2C)c2cc(Cl)c(-c3ccccc3F)nc21 (mixture of isomers) [Example 17, 6-Chloro-7-(2-fluorophenyl)-1-(2-isopropyl-4-methylpyridin-3-yl)-4-((S)-2-methyl-4-((2R,3S)-3-methyloxirane-2-carbonyl)piperazin-1-yl)pyrido[2,3-d]pyrimidin-2(1H)-one and 6-chloro-7-(2-fluorophenyl)-1-(2-isopropyl-4-methylpyridin-3-yl)-4-((S)-2-methyl-4-((2S,3R)-3-methyloxirane-2-carbonyl)piperazin-1-yl)pyrido[2,3-d]pyrimidin-2(1H)-one] | 17.8 | 0.096 | > 250 |  |  |  |
| Cc1ccnc(C(C)C)c1-n1c(=O)nc(N2CCN(C(=O)CCl)C[C@@H]2C)c2cc(Cl)c(-c3ccccc3F)nc21 [Example 1, (S)-6-Chloro-4-(4-(2-chloroacetyl)-2-methylpiperazin-1-yl)-7-(2-fluorophenyl)-1-(2-isopropyl-4-methylpyridin-3-yl)pyrido[2,3-d]pyrimidin-2(1H)-one] | 1.29 | 0.026 | > 250 |  |  |  |
| Cc1ccnc(C(C)C)c1-n1c(=O)nc(N2CCN(C(=O)CF)C[C@@H]2C)c2cc(Cl)c(-c3ccccc3F)nc21 [Example 2, (S)-6-Chloro-4-(4-(2-fluoroacetyl)-2-methylpiperazin-1-yl)-7-(2-fluorophenyl)-1-(2-isopropyl-4-methylpyridin-3-yl)pyrido[2,3-d]pyrimidin-2(1H)-one] |  |  |  | > 250 | 13.4 | > 250 |
| Cc1ccnc(C(C)C)c1-n1c(=O)nc(N2CCN(C(=O)COc3ccccc3)C[C@@H]2C)c2cc(Cl)c(-c3ccccc3F)nc21 [Example 6, (S)-6-Chloro-7-(2-fluorophenyl)-1-(2-isopropyl-4-methylpyridin-3-yl)-4-(2-methyl-4-(2-phenoxyacetyl)piperazin-1-yl)pyrido[2,3-d]pyrimidin-2(1H)-one] | > 250 | 131 | > 250 |  |  |  |
| Cc1ccnc(C(C)C)c1-n1c(=O)nc(N2CCN(C(=O)COc3c(Cl)cccc3Cl)C[C@@H]2C)c2cc(Cl)c(-c3ccccc3F)nc21 [Example 7, (S)-6-Chloro-4-(4-(2-(2,6-dichlorophenoxy)acetyl)-2-methylpiperazin-1-yl)-7-(2-fluorophenyl)-1-(2-isopropyl-4-methylpyridin-3-yl)pyrido[2,3-d]pyrimidin-2(1H)-one] | > 250 | 26.2 | > 250 |  |  |  |
| Cc1ccnc(C(C)C)c1-n1c(=O)nc(N2CCN(C(=O)COc3c(F)c(F)cc(F)c3F)C[C@@H]2C)c2cc(Cl)c(-c3ccccc3F)nc21 [Example 9, (S)-6-chloro-7-(2-fluorophenyl)-1-(2-isopropyl-4-methylpyridin-3-yl)-4-(2-methyl-4-(2-(2,3,5,6-tetrafluorophenoxy)acetyl)piperazin-1-yl)pyrido[2,3-d]pyrimidin-2(1H)-one] | 33.9 | 2.45 | > 250 |  |  |  |
| Cc1ccnc(C(C)C)c1-n1c(=O)nc(N2CCN(C(=O)COc3c(F)cc(F)cc3F)C[C@@H]2C)c2cc(Cl)c(-c3ccccc3F)nc21 [Example 11, (S)-6-Chloro-7-(2-fluorophenyl)-1-(2-isopropyl-4-methylpyridin-3-yl)-4-(2-methyl-4-(2-(2,4,6-trifluorophenoxy)acetyl)piperazin-1-yl)pyrido[2,3-d]pyrimidin-2(1H)-one] | 69.8 | 5.45 | > 250 |  |  |  |
| Cc1ccnc(C(C)C)c1-n1c(=O)nc(N2CCN(C(=O)COc3cccc(F)c3F)C[C@@H]2C)c2cc(Cl)c(-c3ccccc3F)nc21 [Example 12, (S)-6-Chloro-7-(2-fluorophenyl)-1-(2-isopropyl-4-methylpyridin-3-yl)-4-(2-methyl-4-(2-(2,3-difluorophenoxy)acetyl)piperazin-1-yl)pyrido[2,3-d]pyrimidin-2(1H)-one] | 35.7 | 2.02 | > 250 |  |  |  |
| Cc1ccnc(C(C)C)c1-n1c(=O)nc(N2CCN(C(=O)[C@H]3CN3)C[C@@H]2C)c2cc(Cl)c(-c3ccccc3F)nc21 [Example 14, 4-((S)-4-((R)-Aziridine-2-carbonyl)-2-methylpiperazin-1-yl)-6-chloro-7-(2-fluorophenyl)-1-(2-isopropyl-4-methylpyridin-3-yl)pyrido[2,3-d]pyrimidin-2(1H)-one] | 88.3 | 1.56 | > 250 |  |  |  |
| Cc1ccnc(C(C)C)c1-n1c(=O)nc(N2CCN(C(=O)[C@@H]3CO3)C[C@@H]2C)c2cc(Cl)c(-c3ccccc3F)nc21 [Example 15, 6-Chloro-7-(2-fluorophenyl)-1-(2-isopropyl-4-methylpyridin-3-yl)-4-((S)-2-methyl-4-((S)-oxirane-2-carbonyl)piperazin-1-yl)pyrido[2,3-d]pyrimidin-2(1H)-one] | 74.1 | 0.83 | > 250 |  |  |  |
| CCOC(=O)[C@H]1O[C@@H]1C(=O)N1CCN(c2nc(=O)n(-c3c(C)ccnc3C(C)C)c3nc(-c4ccccc4F)c(Cl)cc23)[C@@H](C)C1 [Example 18, Ethyl (2S,3S)-3-((S)-4-(6-chloro-7-(2-fluorophenyl)-1-(2-isopropyl-4-methylpyridin-3-yl)-2-oxo-1,2-dihydropyrido[2,3-d]pyrimidin-4-yl)-3-methylpiperazine-1-carbonyl)oxirane-2-carboxylate] | 23.9 | 0.53 | > 250 |  |  |  |
| Cc1ccnc(C(C)C)c1-n1c(=O)nc(N2CCN(C(=O)[C@@H]3O[C@H]3C(=O)O)C[C@@H]2C)c2cc(Cl)c(-c3ccccc3F)nc21 [Example 20, (2R,3R)-3-((S)-4-(6-chloro-7-(2-fluorophenyl)-1-(2-isopropyl-4-methylpyridin-3-yl)-2-oxo-1,2-dihydropyrido[2,3-d]pyrimidin-4-yl)-3-methylpiperazine-1-carbonyl)oxirane-2-carboxylic acid] |  | 1 | > 250 |  |  |  |
| Cc1ccnc(C(C)C)c1-n1c(=O)nc(N2CCN(C(=O)[C@@H]3O[C@H]3CN3CCCCC3)C[C@@H]2C)c2cc(Cl)c(-c3ccccc3F)nc21 [Example 21, 6-Chloro-7-(2-fluorophenyl)-1-(2-isopropyl-4-methylpyridin-3-yl)-4-((S)-2-methyl-4-((2R,3S)-3-(piperidin-1-ylmethyl)oxirane-2-carbonyl)piperazin-1-yl)pyrido[2,3-d]pyrimidin-2(1H)-one] | 1.12 | 0.005 | > 250 |  |  |  |
| Cc1ccnc(C(C)C)c1-n1c(=O)nc(N2CCN(C(=O)[C@@H]3O[C@H]3CO)C[C@@H]2C)c2cc(Cl)c(-c3ccccc3F)nc21 [Example 22, 6-Chloro-7-(2-fluorophenyl)-4-((S)-4-((2R,3S)-3-(hydroxymethyl)oxirane-2-carbonyl)-2-methylpiperazin-1-yl)-1-(2-isopropyl-4-methylpyridin-3-yl)pyrido[2,3-d]pyrimidin-2(1H)-one] | 6.26 | 0.064 | > 250 |  |  |  |
| Cc1ccnc(C(C)C)c1-n1c(=O)nc(N2CCN(C(=O)C3CO3)[C@@H](CC#N)C2)c2cc(Cl)c(-c3ccccc3F)nc21 (stereo partly drawn) [Example 23, 2-((2S)-4-(6-Chloro-7-(2-fluorophenyl)-1-(2-isopropyl-4-methylpyridin-3-yl)-2-oxo-1,2-dihydropyrido[2,3-d]pyrimidin-4-yl)-1-(oxirane-2-carbonyl)piperazin-2-yl)acetonitrile] | > 250 | 0.431 | > 250 |  |  |  |
| Cc1ccnc(C(C)C)c1-n1c(=O)nc(N2CC3(CN(C(=O)C4CO4)C3)C2)c2cc(Cl)c(-c3ccccc3F)nc21 (stereo not shown) [Example 24, 6-Chloro-7-(2-fluorophenyl)-1-(2-isopropyl-4-methylpyridin-3-yl)-4-(6-(oxirane-2-carbonyl)-2,6-diazaspiro[3.3]heptan-2-yl)pyrido[2,3-d]pyrimidin-2(1H)-one] | 222 | 41.6 | > 250 |  |  |  |
| Cc1ccnc(C(C)C)c1-n1c(=O)nc(N2CCC3(CC2)CN(C(=O)[C@H]2CO2)C3)c2cc(Cl)c(-c3ccccc3F)nc21 [Example 25, (R)-6-chloro-7-(2-fluorophenyl)-1-(2-isopropyl-4-methylpyridin-3-yl)-4-(2-(oxirane-2-carbonyl)-2,7-diazaspiro[3.5]nonan-7-yl)pyrido[2,3-d]pyrimidin-2(1H)-one] |  | 7.15 | > 250 |  |  |  |
| Cc1ccnc(C(C)C)c1-n1c(=O)nc(N2CC[C@@H](NC(=O)C3CO3)C2)c2cc(Cl)c(-c3ccccc3F)nc21 (stereo partly drawn) [Example 26, N—((R)-1-(6-Chloro-7-(2-fluorophenyl)-1-(2-isopropyl-4-methylpyridin-3-yl)-2-oxo-1,2-dihydropyrido[2,3-d]pyrimidin-4-yl)pyrrolidin-3-yl)oxirane-2-carboxamide] | 194 | 2.99 | > 250 |  |  |  |
| Cc1ccnc(C(C)C)c1-n1c(=O)nc(N2CC(NC(=O)C3CO3)C2)c2cc(Cl)c(-c3ccccc3F)nc21 (stereo not shown) [Example 27] | 4.41 | 0.018 | > 250 |  |  |  |
